Data from BindingDB's records for doi:10.1021/jm00124a018 (Institute of Cancer Research, 1989).

Biological target: Thymidylate synthase (Mus musculus, L1210)
Assay: Inhibitory concentration of compound to inhibit Thymidylate synthase (TS) in L1210 cells at conc. of 200 uM

Work on `CCN(Cc1ccc2nc[nH]c(=O)c2c1)c1ccc(C(=O)NC(CCC(=O)O)C(=O)O)cc1` (configuration not stated) yielded an IC50 of 520 nM.

In the case of `CCN(Cc1ccc2nc(N)[nH]c(=O)c2c1)c1ccc(C(=O)NC(CCC(=O)O)C(=O)O)cc1` (configuration not stated), the IC50 is reported as 60 nM.
